As usually defined, the IC50 is the concentration at which inhibition is half-maximal.

For one assay, the system named is A549. The assay is described as follows: Cytotoxicity against human A549 cells assessed as reduction in cell viability by MTT assay. The format is functional, cell-based. (In general: Formazan colour is commonly taken as a measure of viable cells.)
For another assay, the system named is Vero. The assay is described as follows: Cytotoxicity against African green monkey Vero cells assessed as reduction in cell viability by MTT assay. Format: cell-based. The note with it: Chlorocebus sabaeus.
A further assay relates to HT-29. In words: Cytotoxicity against human HT-29 cells assessed as reduction in cell viability by MTT assay. Format: functional, cell-based.
The next assay has as its system KB. In words: Cytotoxicity against human KB cells assessed as reduction in cell viability by MTT assay. Format: functional, cell-based.
A further assay concerns HeLa. The assay is described as follows: Cytotoxicity against human HeLa cells assessed as reduction in cell viability by MTT assay. Format: functional, cell-based.

As for `C[C@H]1[C@H](C)CC[C@]2(C(=O)O)CC[C@]3(COC(=O)/C=C/c4ccc(O)cc4)C(=CC[C@@H]4[C@@]5(C)CC[C@H](O)C(C)(C)[C@@H]5CC[C@]43C)[C@H]12`, the concentration for half-maximal inhibition (IC50) in the assay with A549 was 2200 nM.
With `CO[C@H]1[C@@H](O)[C@H](O[C@H]2CC[C@@]3(C)[C@H](CC[C@@H]4[C@@H]3CC[C@]3(C)[C@@H](C5=CC(=O)OC5)[C@@H](O)C[C@]43O)C2)O[C@@H](C)[C@@H]1O[C@@H]1O[C@H](CO[C@@H]2O[C@H](CO)[C@@H](O)[C@H](O)[C@H]2O)[C@@H](O)[C@H](O)[C@H]1O`, the IC50 with Vero, in the assay on HT-29, with KB and with HeLa was greater than 10000 nM in each case.
As for `CO[C@H]1[C@@H](O)[C@H](O[C@H]2CC[C@@]3(C)[C@H](CC[C@@H]4[C@@H]3CC[C@]3(C)[C@@H]([C@H]5COC(=O)C5)CC[C@]43O)C2)O[C@@H](C)[C@@H]1O[C@@H]1O[C@H](CO[C@@H]2O[C@H](CO)[C@@H](O)[C@H](O)[C@H]2O)[C@@H](O)[C@H](O)[C@H]1O`, the concentration for half-maximal inhibition (IC50) with Vero, with HT-29, with KB and in the assay with HeLa was greater than 10000 nM in each case.
For `CO[C@@H]1[C@@H](O[C@@H]2O[C@H](CO[C@@H]3O[C@H](CO)[C@@H](O)[C@H](O)[C@H]3O)[C@@H](O)[C@H](O)[C@H]2O)[C@H](C)O[C@@H](O[C@H]2CC[C@@]3(C)[C@H](CC[C@@H]4[C@@H]3CC[C@]3(C)[C@@H]([C@H]5COC(=O)C5)CC[C@]43O)C2)[C@@H]1OC(C)=O`, the IC50 with Vero, in the assay on HT-29, in the assay with KB and in the assay with HeLa was greater than 10000 nM in each case.
For the compound `CO[C@H]1[C@@H](O)[C@H](C)O[C@@H](O[C@H]2CC[C@@]3(C)[C@H](CC[C@@H]4[C@@H]3CC[C@]3(C)[C@@H](C5=CC(=O)OC5)[C@@H](O)C[C@]43O)C2)[C@@H]1O`, the half-inhibitory concentration (IC50) with Vero came out at 20 nM; in the assay with HT-29 it was 300 nM; in the assay on KB it was 500 nM; in the assay with HeLa, 6200 nM.
In the case of `CO[C@H]1[C@@H](O)[C@H](O[C@H]2CC[C@@]3(C)[C@H](CC[C@@H]4[C@@H]3CC[C@]3(C)[C@@H]([C@H]5COC(=O)C5)CC[C@]43O)C2)O[C@@H](C)[C@@H]1O[C@@H]1O[C@H](CO)[C@@H](O)[C@H](O)[C@H]1O`, the IC50 was greater than 10000 nM with Vero, greater than 10000 nM in the assay with HT-29, 6600 nM in the assay with KB and 6200 nM in the assay on HeLa.
Take `CO[C@@H]1[C@@H](O)[C@H](C)O[C@@H](O[C@H]2CC[C@@]3(C)[C@H](CC[C@@H]4[C@@H]3CC[C@]3(C)[C@@H](C5=CC(=O)OC5)[C@@H](O)C[C@]43O)C2)[C@@H]1O`: the half-inhibitory concentration (IC50) amounted to 1300 nM in the assay on Vero, 200 nM in the assay with HT-29, 1700 nM in the assay with KB and 80 nM in the assay on HeLa.
With `CO[C@H]1[C@@H](O)[C@H](C)O[C@@H](O[C@H]2CC[C@@]3(C)[C@H](CC[C@@H]4[C@@H]3CC[C@]3(C)[C@@H]([C@H]5COC(=O)C5)CC[C@]43O)C2)[C@@H]1O`, the IC50 in the assay with Vero came out at 9200 nM; in the assay on HT-29 it was 4100 nM; in the assay with KB, 1900 nM; with HeLa, 9300 nM.
The corresponding values for `CO[C@@H]1[C@@H](O)[C@H](O[C@H]2CC[C@@]3(C)[C@H](CC[C@@H]4[C@@H]3CC[C@]3(C)[C@@H]([C@H]5COC(=O)C5)CC[C@]43O)C2)O[C@@H](C)[C@@H]1O[C@@H]1O[C@H](CO)[C@@H](O)[C@H](O)[C@H]1O` are 500 nM, 7100 nM, 1700 nM and 1100 nM.
In the case of `C[C@H]1[C@H](C)CC[C@]2(C(=O)O)CC[C@]3(COC(=O)/C=C\c4ccc(O)cc4)C(=CC[C@@H]4[C@@]5(C)CC[C@H](O)C(C)(C)[C@@H]5CC[C@]43C)[C@H]12`, in the assay on HeLa, the half-maximal inhibitory concentration (IC50) is 6100 nM.
Take `CO[C@@H]1[C@@H](O)[C@H](O[C@H]2CC[C@@]3(C)[C@H](CC[C@@H]4[C@@H]3CC[C@]3(C)[C@@H](C5=CC(=O)OC5)[C@@H](O)C[C@]43O)C2)O[C@@H](C)[C@@H]1O[C@@H]1O[C@H](CO[C@@H]2O[C@H](CO)[C@@H](O)[C@H](O)[C@H]2O)[C@@H](O)[C@H](O)[C@H]1O`: the 50% inhibitory concentration (IC50) with Vero, in the assay on HT-29, in the assay on KB and in the assay with HeLa was greater than 10000 nM throughout.
On to `CC1(C)CC[C@]2(C(=O)O)CC[C@]3(COC(=O)/C=C\c4ccc(O)cc4)C(=CC[C@@H]4[C@@]5(C)CC[C@H](O)C(C)(C)[C@@H]5CC[C@]43C)[C@@H]2C1`, for which the IC50 in the assay on HT-29 is 600 nM.
In the case of `CO[C@@H]1[C@@H](O)[C@H](C)O[C@@H](O[C@H]2CC[C@@]3(C)[C@H](CC[C@@H]4[C@@H]3CC[C@]3(C)[C@@H]([C@H]5COC(=O)C5)CC[C@]43O)C2)[C@@H]1O`, the IC50 in the assay with Vero was 600 nM; with HT-29, 200 nM; with KB, 30 nM; in the assay on HeLa, 500 nM.
The corresponding values for `COc1cccc2c1C(=O)c1c(O)c3c(c(O)c1C2=O)C[C@@](O)(C(=O)CO)C[C@@H]3O[C@H]1C[C@H](N)[C@H](O)[C@H](C)O1` [DOXORUBICIN] are 1300 nM, 900 nM, 200 nM and 140 nM.

(Values after ChEMBL document CHEMBL4414675, “Cytotoxic 20,22-Dihydrodigitoxigenin Glycosides and Other Constituents of Vallaris glabra Stems” (J Nat Prod, 2019).)
